# In patent US8598374B2, “GPR120 receptor agonists and uses thereof” (Metabolex, Inc, priority 2008, dated 2013):
# Biological target: T1, human GPR120 (Homo sapiens, UniProt Q5NUL3)
# T1 construct: Flag (DYKDDDDK) (N); host or cells: HEK293 cells co-expressing Gqi5
# T1 sequence (Q5NUL3 1-361): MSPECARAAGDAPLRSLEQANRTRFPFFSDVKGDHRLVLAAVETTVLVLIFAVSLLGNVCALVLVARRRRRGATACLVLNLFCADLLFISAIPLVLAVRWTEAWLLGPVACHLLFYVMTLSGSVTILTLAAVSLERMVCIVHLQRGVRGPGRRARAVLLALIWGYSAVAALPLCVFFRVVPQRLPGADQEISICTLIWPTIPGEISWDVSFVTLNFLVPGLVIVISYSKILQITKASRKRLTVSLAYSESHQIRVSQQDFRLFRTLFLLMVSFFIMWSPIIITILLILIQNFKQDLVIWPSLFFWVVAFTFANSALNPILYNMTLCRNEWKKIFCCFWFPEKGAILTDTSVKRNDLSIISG
# Test: Intracellular Ca2+ assay (FLIPR Calcium 4, Flexstation) in human GPR120 stable cell line
# Assay type: cell-based
# Conditions: % activity at 2.5 μM compared to the maximal activity of the compound of Example 25 at 2.5 μM; HEK293 cells co-expressing Gqi5
# Experimental: Human GPR120 stable cell line was purchased from Multispan Inc (26219 Eden Landing Road, Hayward, Calif. 94545). This GPR120 cell line was generated in HEK293 cells co-expressing Gqi5. In this cell line, the Flag epitope tag (DYKDDDDK) was fused to the amino terminus of human GPR120 protein.
# The concentration of intracellular Ca^2+ was measured as described below. Human GPR120 cells were plated in 96 well plates (Poly-D-Lysine coated black/clear Plate, Greiner Bio-One) at 70,000 cells per well and cultured overnight in conditions of 37° C. and 5% CO2. A Ca^2+ assay dye stock solution was prepared by adding 10 mL of assay buffer (HBSS/20 mM HEPES, pH 7.4) to FLIPR Calcium 4 Assay Bulk Kit (Molecular Devices). The 10 mL of Ca^2+ assay dye solution was prepared by further diluting 0.5 mL of Ca^2+ assay dye stock solution with 10 mL of assay buffer. The medium of the cells was removed and immediately 100 μL of the Ca^2+ assay dye solution was dispensed into each well followed by incubation at 37° C. and 5% CO2 for 50 minutes to incorporate the Ca^2+ dye into the cells. The cell plate was then placed in the Flexstation (Molecular Devices) for 20 minutes at 37° C. Compounds were dissolved in 100% DMSO and diluted to desired concentrations with assay buffer and placed in the Flexstation simultaneously with the cell plate for 20 minute incubation at 37° C. prior to reading. Fluorescence intensity was measured immediately following compound addition (25 μL/well) on the Flexstation at an excitation wavelength of 485 nm and an emission wavelength of 525 with 515 nm auto cutoff. The resulting increase in fluorescence intensities corresponds to increases in intracellular Ca^2+ levels.
# Compounds were dissolved in 100% DMSO to a concentration of 20 mM to provide stock solutions. To determine activity against human GPR120, compounds were added with human GPR120 stably expressing cells (described above), at eight desired concentrations ranging from 0.00001 to 20 μM, in 96 well plates and fluorescence intensities were measured for 90 seconds with 2-second intervals. An EC50 value (concentration of the GPR120 agonist where 50% of the agonist's maximal activity is observed) was calculated using the changes (Max-Min) of fluorescence intensity.
# To determine percent activity for a tested compound, the fluorescence intensity value obtained at a particular concentration were compared to the maximal fluorescence intensity value obtained for reference compound GW9508 (4-[[(3-phenoxyphenyl)methyl]amino]benzene propanoic acid; British Journal of Pharmacology 2006 148, 619-628) or the compound of Example 25. When GW9508 was used as the reference compound, the maximal activity of GW9508 at 6.7 μM was designated as 100% activity. When the compound of Example 25 was used as the reference compound, the maximal activity of the compound of Example 25 at 2.5 μM was designated as 100% activity. Typically, the GW9508 activity reached a maximum at a concentration of approximately 6.7 μM and typically the compound of Example 25 reached a maximum activity at approximately 2.5 μM.
row,% Activity (Ex. 25 Reference Compound),Compound
1,152.44%,"CC1(C)Cc2cc(F)cc(COc3ccc4c(c3)CC[C@H]4CC(=O)O)c2O1 [Example 175, (S)-2-(5-((5-fluoro-2,2-dimethyl-2,3-dihydrobenzofuran-7-yl)methoxy)-2,3-dihydro-1H-inden-1-yl)acetic acid]"
2,131.64%,"CC(Cc1ccc(OCc2cc(OC(F)(F)F)cc3c2OC(C)(C)C3)cc1)C(=O)O (stereo not shown) [Example 124, 3-(4-((2,2-dimethyl-5-(trifluoromethoxy)-2,3-dihydrobenzofuran-7-yl)methoxy)phenyl)-2-methylpropanoic acid]"
3,104.04%,"CC1(C)Cc2c(COc3ccc4c(c3)CC[C@@H]4CC(=O)O)cc(F)cc2O1 [Example 188, (R)-2-(5-((6-fluoro-2,2-dimethyl-2,3-dihydrobenzofuran-4-yl)methoxy)-2,3-dihydro-1H-inden-1-yl)acetic acid]"
4,151.44%,"CC1(C)Cc2cc(F)cc(COc3cc(Cl)c(CCC(=O)O)c(Cl)c3)c2O1 [Example 197, 3-(2,6-dichloro-4-((5-fluoro-2,2-dimethyl-2,3-dihydrobenzofuran-7-yl)methoxy)phenyl)propanoic acid]"
5,159.62%,"[2H]C([2H])(C(=O)O)C([2H])([2H])c1ccc(OCc2cc(Cl)cc3c2OC(C)(C)C3)c(F)c1 [Example 241, 3-(4-((5-chloro-2,2-dimethyl-2,3-dihydrobenzofuran-7-yl)methoxy)-3-fluorophenyl)-2,2,3,3-tetradeuteriopropanoic acid]"
6,115.86%,"CCc1cc(OCc2cc(F)cc3c2OC(C)(C)C3)c(F)cc1CCC(=O)O [Example 220, 3-(2-ethyl-5-fluoro-4-((5-fluoro-2,2-dimethyl-2,3-dihydrobenzofuran-7-yl)methoxy)phenyl)propanoic acid]"
7,124.82%,"CC(Cc1ccc(OCc2c(F)ccc3c2CC(C)(C)O3)cc1)C(=O)O (stereo not shown) [Example 96, 3-(4-((5-fluoro-2,2-dimethyl-2,3-dihydrobenzofuran-4-yl)methoxy)phenyl)-2-methylpropanoic acid]"
8,47.01%,"CC(=O)Nc1cc(COc2ccc(CC(C)C(=O)O)cc2)c2c(c1)CC(C)(C)O2 (stereo not shown) [Example 123, 3-(4-((5-acetamido-2,2-dimethyl-2,3-dihydrobenzofuran-7-yl)methoxy)phenyl)-2-methylpropanoic acid]"
9,116.46%,"CC1(C)Cc2cc(Cl)cc(COc3c(F)cc(C4CC4CC(=O)O)cc3F)c2O1 (stereo not shown) [Example 41, 2-(2-(4-((5-chloro-2,2-dimethyl-2,3-dihydrobenzofuran-7-yl)methoxy)-3,5-difluorophenyl)cyclopropyl)acetic acid]"
10,148.87%,"CC1(C)Cc2cc(Cl)cc(COc3ccc(C(C)(C)CC(=O)O)cc3)c2O1 [Example 156, 3-(4-((5-chloro-2,2-dimethyl-2,3-dihydrobenzofuran-7-yl)methoxy)phenyl)-3-methylbutanoic acid]"
11,69.03%,"CC(Cc1ccc(NC(=O)c2cc(F)cc3c2OC(C)(C)C3)cc1)C(=O)O (stereo not shown) [Example 68, 3-(4-(5-fluoro-2,2-dimethyl-2,3-dihydrobenzofuran-7-carboxamido)phenyl)-2-methylpropanoic acid]"
12,143.85%,"COc1cc(COc2ccc(CC(C)C(=O)O)cc2)c2c(c1)CC(C)(C)O2 (stereo not shown) [Example 108, 3-(4-((5-methoxy-2,2-dimethyl-2,3-dihydrobenzofuran-7-yl)methoxy)phenyl)-2-methylpropanoic acid]"
13,144.23%,"CCc1c(CCC(=O)O)ccc(OCc2cc(F)cc3c2OC(C)(C)C3)c1F [Example 216, 3-(2-ethyl-3-fluoro-4-((5-fluoro-2,2-dimethyl-2,3-dihydrobenzofuran-7-yl)methoxy)phenyl)propanoic acid]"
14,143.69%,"[2H]C1([2H])c2cc(F)cc(COc3ccc(CC(C)C(=O)O)cc3)c2OC1(C)C (stereo not shown) [Example 145, 3-(4-((3,3-dideuterio-5-fluoro-2,2-dimethyl-2,3-dihydrobenzofuran-7-yl)methoxy)phenyl)-2-methylpropanoic acid]"
15,154.48%,"CC(Cc1ccc(OCc2cc(F)cc3c2OC2(CCCC2)C3)cc1)C(=O)O (stereo not shown) [Example 162, 3-(4-((5-fluoro-3H-spiro[benzofuran-2,1′-cyclopentane]-7-yl)methoxy)phenyl)-2-methylpropanoic acid]"
16,143.21%,"Cc1cc(OCc2cc(F)cc3c2OC(C)(C)C3)c(F)cc1CCC(=O)O [Example 214, 3-(5-fluoro-4-((5-fluoro-2,2-dimethyl-2,3-dihydrobenzofuran-7-yl)methoxy)-2-methylphenyl)propanoic acid]"
17,138.97%,"CC1(C)Cc2cc(Cl)cc(COc3cc(F)c(CCC(=O)O)c(F)c3)c2O1 [Example 54, 3-(4-((5-chloro-2,2-dimethyl-2,3-dihydrobenzofuran-7-yl)methoxy)-2,6-difluorophenyl)propanoic acid]"
18,42.73%,"CC(C)C(CC(=O)O)c1ccc(OCc2cc(Cl)cc3c2OC(C)(C)C3)cc1 (stereo not shown) [Example 266, 3-(4-((5-chloro-2,2-dimethyl-2,3-dihydrobenzofuran-7-yl)methoxy)phenyl)-4-methylpentanoic acid]"
19,5.98%,"CC1(C)Cc2cc(F)cc(COc3ccc4c(CC(=O)O)cc(=O)oc4c3)c2O1 [Example 263, 2-(7-((5-fluoro-2,2-dimethyl-2,3-dihydrobenzofuran-7-yl)methoxy)-2-oxo-2H-chromen-4-yl)acetic acid]"

# Same assay, conditions: human GPR120 stably expressing cells, eight concentrations from 0.00001 to 20 μM
row,EC50,Compound
1,1 to 10 µM,"CC1(C)Cc2cc(F)cc(COc3ccc(CCC(=O)O)c(C(F)(F)F)c3)c2O1 [Example 61, 3-(4-((5-fluoro-2,2-dimethyl-2,3-dihydrobenzofuran-7-yl)methoxy)-2-(trifluoromethyl)phenyl)propanoic acid]"
2,1 to 10 µM,"CCc1cc(OCc2cc(F)cc3c2OC(C)(C)C3)ccc1/C=C/C(=O)O [Example 60, (E)-3-(2-ethyl-4-((5-fluoro-2,2-dimethyl-2,3-dihydrobenzofuran-7-yl)methoxy)phenyl)acrylic acid]"
3,1 to 10 µM,"C[C@@H](Cc1ccc(OCc2cc(F)cc3c2OC(C)(C)C3)cc1)C(=O)O [Example 66, (S)-3-(4-((5-fluoro-2,2-dimethyl-2,3-dihydrobenzofuran-7-yl)methoxy)phenyl)-2-methylpropanoic acid]"
4,1 to 10 µM,"CC1(C)Cc2cc(Cl)cc(COc3cc(F)c(CCC(=O)O)c(F)c3)c2O1 [Example 54, 3-(4-((5-chloro-2,2-dimethyl-2,3-dihydrobenzofuran-7-yl)methoxy)-2,6-difluorophenyl)propanoic acid]"
5,1 to 10 µM,"CC(Cc1cc(F)c(OCc2ccc(C(F)(F)F)c3c2OC(C)(C)C3)c(F)c1)C(=O)O (stereo not shown) [Example 32, 3-(4-((2,2-dimethyl-4-(trifluoromethyl)-2,3-dihydrobenzofuran-7-yl)methoxy)-3,5-difluorophenyl)-2-methylpropanoic acid]"
6,1 to 10 µM,"Cc1cc(OCc2cc(Cl)cc3c2OC(C)(C)C3)ccc1CCC(=O)O [Example 51, 3-(4-((5-chloro-2,2-dimethyl-2,3-dihydrobenzofuran-7-yl)methoxy)-2-methylphenyl)propanoic acid]"
